Test results from patent publication US20100022559A1, “BISOXIMES AS FUNGICIDES” (BAYER CROPSCIENCE AG, priority 2006, published 2010).

Assays:
[1] = logP determination by HPLC on a reversed-phase column (C 18), EEC Directive 79/831 Annex V.A8; type: physicochemical
Protocol: The stated logP values were determined in accordance with EEC Directive 79/831 Annex V.A8 by HPLC (high performance liquid chromatography) on a reversed-phase column (C 18). Temperature: 43° C.

[2] = system: larvae of the mustard beetle (Phaedon cochleariae); assay: Phaedon test (spray treatment); type: in vivo; details: active compound concentration 500 ppm, after 7 days, chinese cabbage leaf discs
Protocol: [table] To produce a suitable preparation of active compound, 1 part by weight of active compound is mixed with the stated amounts of solvents and emulsifier, and the concentrate is diluted with emulsifier-containing water to the desired concentration. Discs of chinese cabbage (Brassica pekinensis) are sprayed with an active compound preparation of the desired concentration and, after drying, populated with larvae of the mustard beetle (Phaedon cochleariae). After the desired period of time, the effect in % is determined. 100% means that all beetle larvae have been killed; 0% means that none of the beetle larvae have been killed.

Puccinia recondita = assay: Puccinia Recondita Test (Cereal)/Seed Treatment; type: in vivo; details: 50 g/100 kg of seed; seed treatment; evaluation about 7 days after inoculation
Protocol: Puccinia Recondita Test (Cereal)/Seed Treatment
The active compounds are applied as liquid dressings, 1 part by weight of the active compound being mixed with 10 parts by weight of a solvent. For each concentration tested, the appropriate volume from the mixture is pipetted. For the dressing, the preparation is pipetted onto the seed and the seed is shaken in a closed glass bottle for 3 minutes. At 3×12 grains, the seed is sown into a soil/sand mixture in pots. The pots are initially incubated at 5° C. in the dark for 14 days and then cultivated in a greenhouse at a temperature of about 10° C. and 15 hours of light per day for a further 14 days. The plants are then sprayed with a spore suspension of Puccinia recondita and subsequently placed in an incubation cabin at 18° C. and 100% relative atmospheric humidity for 48 hours. The plants are then placed in a greenhouse at a temperature of about 18° C. and a relative atmospheric humidity of 80%. Evaluation is carried out about 7 days after the inoculation. 0% means an efficacy which corresponds to that of the control, whereas an efficacy of 100% means that no infection is observed.

Row | Structure (SMILES) | logP ([1]; method marked [b] in Table 1) | efficacy [2] [%] | efficacy (Puccinia recondita) [%] | logP ([1]; method marker [b], isomer A / isomer B / isomer mixture as noted in the cell)
1 | CCCC1=NOC(CON=C(CCC)c2cccc(C)n2)(CON=C(CCC)c2cccc(C)n2)C1 (stereo not shown) [Compound 618] | 5.71^[b] | 100 | – | –
2 | CC(=NOCC(C)(C)CON=C(C)c1cccc(C)n1)c1cccc(C)n1 (single isomer, unassigned) [Compound 141] | – | – | ≥ 70 | 4.40^[b] (isomer A)
